Patent publication US20240390349A1, “DOSING REGIMEN OF CAPSID INHIBITOR” (priority 2023, published 2024)
“Also recorded” adds a separate entry of the source.

Tests used:
[1] = Safety data from all completed and ongoing clinical studies of LEN; type: in vivo, human; details: oral doses up to 1800 mg
Description: Lenacapavir has been administered orally at doses up to 1800 mg. […] Oral LEN was administered without regard to food.

[2] = human, in vivo, sc
[3] = Safety during oral bridging period, CAPELLA; type: in vivo
HIV-1 = assay: Efficacy of oral bridging (HIV-1 RNA, CD4), CAPELLA; type: in vivo, human; details: for Percentage who maintained HIV-1 RNA<50 copies/mL: OB baseline HIV-1 RNA<50, Missing=Failure; for Proportion of participants with HIV-1 RNA<50 copies/mL: suppressed at OB baseline
Excerpt: This Example describes analysis of oral LEN bridging administered during a Phase 2/3, global, randomized, placebo-controlled multicenter study of lenacapavir (LEN) together with an optimized background regimen (OBR) in people with HIV (PWH) with multidrug resistance (MDR) (to […] antiretroviral (ARV) medications from each of ≥3 of the 4 main classes) and who are failing their current regimen (defined as plasma HIV-1 RNA≥400 copies/mL).
This Example describes a Phase 2/3, global, randomized, placebo-controlled multicenter study of LEN together with an OBR in PWH with MDR (to ≥2 ARV medications from each of ≥3 of the 4 main classes) and who are failing their current regimen (defined as plasma HIV-1 RNA≥400 copies/mL). Participants required oral bridging if an SC injection of LEN was not administered within the protocol visit window.
Participants were enrolled in either of the following two cohorts: • Cohort 1: Randomized in a 2:1 ratio to receive oral LEN or placebo for 14 days starting on Day 1, while they continued their existing regimen; or • Cohort 2: Enrolled to receive oral LEN together with an OBR.

[4] = Safety during oral bridging period, CALIBRATE
Description: An AE could, therefore, be any unfavorable and/or unintended sign, symptom, or disease temporally associated with the use of a study drug, whether or not considered related to the study drug.
Preexisting events that increased in severity or changed in nature during or as a consequence of participation in the clinical study were also considered AEs.

HIV-1 (MT-4 cells) = assay: Inhibitory quotient 4 (4-fold in vitro protein-adjusted 95% effective concentration, MT-4 cells); type: cell-based; details: 4-fold in vitro protein binding-adjusted 95% effective concentration

## CC(C)(C#Cc1ccc(-c2ccc(Cl)c3c(NS(C)(=O)=O)nn(CC(F)(F)F)c23)c([C@H](Cc2cc(F)cc(F)c2)NC(=O)Cn2nc(C(F)(F)F)c3c2C(F)(F)[C@@H]2C[C@H]32)n1)S(C)(=O)=O [LEN, N—((S)-1-(3-(4-chloro-3-(methylsulfonamido)-1-(2,2,2-trifluoroethyl)-1H-indazol-7-yl)-6-(3-methyl-3-(methylsulfonyl)but-1-yn-1-yl)pyridin-2-yl)-2-(3,5-difluorophenyl)ethyl)-2-((3bS,4aR)-5,5-difluoro-3-(trifluoromethyl)-3b,4,4a,5-tetrahydro-1H-cyclopropa [3,4]cyclopenta [1,2-c]pyrazol-1-yl) acetamide]
[1]
  Overall safety and tolerability: generally safe and well tolerated at the intended exposures
[2]
  Lower 90% CI of LEN predose concentration: 56.2 ng/mL
  Mean LEN predose plasma concentration: 74.4 ng/mL
[3]
  Discontinuation of study drug due to a TEAE: No participant discontinued study drug due to a TEAE
  Participants with Grade 2 or higher TEAEs: 26.3%
  Treatment-related asthenia: 1.8%
  Treatment-related diarrhea: 3.5%
  Treatment-related nausea: 1.8%
[3]; 1 participant, considered unrelated to study drug
  Grade 5 TEAE of death: 1.8%
[3]; all Grade 1
  Participants with treatment-related TEAEs: 3.5%
[3]; one participant
  AE of death leading to discontinuation of the study: 1.8%
[3]; oral bridging period
  Changes from baseline in hematology and clinical chemistry: no clinically relevant changes from baseline in hematology and clinical chemistry parameters; also recorded: no clinically relevant changes from baseline in median values for hematology and clinical chemistry
  Changes from baseline in vital signs: no clinically relevant changes from baseline in vital signs
  Overall safety and tolerability of oral LEN: generally safe and well tolerated
  Participants with Grade 1 TEAEs: 22.8%
  Participants with Grade 2 TEAEs: 24.6%
  TEAE COVID-19: 7.0%
  TEAE cough: 5.3%
  TEAE diarrhea: 5.3%
  TEAE upper respiratory tract infection: 5.3%
[3]; oral bridging period, 57 participants
  Participants who experienced TEAEs: 49.1%
HIV-1
  CD4 count and CD4% during oral bridging (in words): continued to increase from oral bridging baseline
  Mean (SD) oral bridging baseline CD4 cell count: 356 (261.1) cells/μL
  Mean oral bridging baseline CD4 percentage: 17.0%
HIV-1; Week 10
  Percentage who maintained HIV-1 RNA<50 copies/mL: 97.8%
  Mean (SD) change from oral bridging baseline in CD4 cell count: −16 (114.2) cells/μL
  Mean change from oral bridging baseline in CD4 percentage: 0.2%
HIV-1; Week 20
  Percentage who maintained HIV-1 RNA<50 copies/mL: 90.9%
  HIV-1 RNA of the 1 participant who did not maintain <50 copies/mL: 57 copies/mL
  Mean (SD) change from oral bridging baseline in CD4 cell count: 12 (71.8) cells/μL
  Mean change from oral bridging baseline in CD4 percentage: 1.0%
HIV-1; OB baseline HIV-1 RNA<50, Week 10
  Mean (SD) change from oral bridging baseline in HIV-1 RNA: 0.00 (0.250) log10 copies/mL
HIV-1; OB baseline HIV-1 RNA<50, Week 20
  Mean (SD) change from oral bridging baseline in HIV-1 RNA: −0.01 (0.096) log10 copies/mL
HIV-1; OB baseline HIV-1 RNA<50 copies/mL
  Mean (SD) baseline HIV-1 RNA: 1.34 (0.121) log10 copies/mL
HIV-1; OB baseline HIV-1 RNA≥50, Missing=Excluded, Week 10
  Percentage who achieved HIV-1 RNA<50 copies/mL: 27.3%
HIV-1; OB baseline HIV-1 RNA≥50, Missing=Excluded, Week 20
  Percentage who achieved HIV-1 RNA<50 copies/mL: 50.0%
HIV-1; OB baseline HIV-1 RNA≥50, Missing=Failure, Week 10
  Percentage who achieved HIV-1 RNA<50 copies/mL: 27.3%
HIV-1; OB baseline HIV-1 RNA≥50, Missing=Failure, Week 20
  Percentage who achieved HIV-1 RNA<50 copies/mL: 40.0%
HIV-1; OB baseline HIV-1 RNA≥50, Week 10
  Mean (SD) change from oral bridging baseline in HIV-1 RNA: −0.58 (1.188) log10 copies/mL
HIV-1; OB baseline HIV-1 RNA≥50, Week 20
  Mean (SD) change from oral bridging baseline in HIV-1 RNA: −1.05 (0.867) log10 copies/mL
HIV-1; OB baseline HIV-1 RNA≥50 copies/mL
  Mean (SD) baseline HIV-1 RNA: 3.43 (1.035) log10 copies/mL
HIV-1; Week 10, missed 2 nonconsecutive oral doses, N74D
  HIV-1 RNA of the 1 participant who did not maintain <50 copies/mL: 920 copies/mL
HIV-1; all who received oral bridging
  Mean (SD) oral bridging baseline HIV-1 RNA: 1.74 (0.947) log10 copies/mL
HIV-1; all who received oral bridging, Missing=Excluded, Week 10
  Percentage of participants with HIV-1 RNA<50 copies/mL: 83.9%
HIV-1; all who received oral bridging, Missing=Excluded, Week 20
  Percentage of participants with HIV-1 RNA<50 copies/mL: 91.4%
HIV-1; all who received oral bridging, Missing=Failure, Week 10
  Percentage of participants with HIV-1 RNA<50 copies/mL: 83.9%
HIV-1; all who received oral bridging, Missing=Failure, Week 20
  Percentage of participants with HIV-1 RNA<50 copies/mL: 84.2%
HIV-1; all who received oral bridging, Week 10
  Mean (SD) change from oral bridging baseline in HIV-1 RNA: -0.11 (0.597) log10 copies/mL
HIV-1; all who received oral bridging, Week 20
  Mean (SD) change from oral bridging baseline in HIV-1 RNA: −0.16 (0.476) log10 copies/mL
HIV-1; majority of participants suppressed at OB baseline
  Virologic suppression during oral bridging (in words): remained virologically suppressed
HIV-1; Missing=Excluded, OB Baseline
  Proportion of participants with HIV-1 RNA<50 copies/mL: 46/46 (100) %
HIV-1; Missing=Excluded, OB Week 30
  Proportion of participants with HIV-1 RNA<50 copies/mL: 10/10 (100) %
[4]
  Changes from oral bridging baseline in blood pressure, pulse, respiration rate, body temperature: no clinically relevant changes from oral bridging baseline
[4]; 1 participant
  Treatment-related diarrhea: 1.2%
[4]; 2 participants, both in oral LEN group
  Grade 3 or higher blood creatine phosphokinase increased: 1.7%
[4]; LEN total group
  Participants with Grade 3 events: 2.5%
  Participants with Grade 3 or higher AEs: 5.0%
  Participants with Grade 4 events: 2.5%
  TEAE COVID-19: 5.8%
  TEAE influenza: 7.4%
  TEAE nasopharyngitis: 5.0%
  TEAE syphilis: 5.0%
[4]; LEN total group (121)
  Participants with any AE: 62.8%
[4]; LEN total group, all Grade 1
  Participants with AEs related to study drug: 3.3%
[4]; LEN total group, not related to study drug
  Participants with serious AEs: 2.5%
[4]; SC LEN total group
  AE oropharyngeal pain: 4.9%
  Participants with AEs related to study drug: 3.7%
  Participants with Grade 3 events: 1.2%
  Participants with Grade 3 or higher AEs: 3.7%
  Participants with Grade 4 events: 2.4%
  Participants with any AE: 64.6%
  Participants with serious AEs: 2.4%
  TEAE COVID-19: 4.9%
  TEAE influenza: 8.5%
  TEAE nasopharyngitis: 4.9%
  TEAE syphilis: 4.9%
[4]; any treatment group
  Changes from oral bridging baseline in hematology or clinical chemistry: no clinically relevant changes from oral bridging baseline in median values for hematology or clinical chemistry parameters
[4]; oral LEN group
  AE arthralgia: 5.1%
  AE blood creatine phosphokinase increase: 5.1%
  AE dyslipidemia: 5.1%
  AE oropharyngeal gonococcal infection: 5.1%
  Participants with AEs related to study drug: 2.6%
  Participants with Grade 3 events: 5.1%
  Participants with Grade 3 or higher AEs: 7.7%
  Participants with Grade 4 events: 2.6%
  Participants with any AE: 59.0%
  Participants with serious AEs: 2.6%
  TEAE COVID-19: 7.7%
  TEAE influenza: 5.1%
  TEAE nasopharyngitis: 5.1%
  TEAE syphilis: 5.1%
[4]; oral bridging period
  AEs leading to premature discontinuation of study drug or study: no TEAEs which led to a premature discontinuation of study drug or from the study were reported; also recorded: no AEs that led to premature discontinuation of study drug or from the study were reported
  Deaths: No deaths were reported
  Overall safety and tolerability of oral LEN: generally safe and well tolerated
HIV-1 (MT-4 cells)
  Plasma concentration corresponding to inhibitory quotient 4 (IQ4): 15.5 ng/mL
